Read-outs that look alike come from different tables or passages of the source.
Key:
mouse 11β-HSD1 = target: T1, mouse 11β-HSD1 (Mus musculus, UniProt P50172); assay: Enzyme inhibitory activity, mouse 11β-HSD1 (lysate of stably expressing CHO-K1 cells, cortisol by competitive ELISA); assay type: biochemical; conditions: Table 2; mouse 11β-HSD1, cell lysate, 37° C. for 1 hour; read-out: m HSD1 in vitro assay (IC50 uM)
T1 construct: The obtained PCR products of about 0.9 kbp, 1.2 kbp, and 0.9 kbp were subcloned into an expression vector pcDNA3.1+/Zeo; expressed in transfected cells
Description: (§1) 1. Human 11β-HSD1-, Human 11β-HSD2- and Mouse 11β-HSD1-Gene Clonings and Establishment of Stably Expressing Cells
(§2) Human 11β-HSD1-, human 11β-HSD2-, and mouse 11β-HSD1-gene clonings were conducted using as a template a reverse transcription product of human-liver RNA, human-kidney RNA (CELL APPLICATIONS), and mouse-kidney RNA respectively, by means of PCR cloning with reference to nucleotide sequences of Genbank Accession Nos. NM_005525, NM_000196, and NM_008288. The obtained PCR products of about 0.9 kbp, 1.2 kbp, and 0.9 kbp were subcloned into an expression vector pcDNA3.1+/Zeo (Invitrogen).
(§3) Human 11β-HSD1- and human 11β-HSD2-expressing vectors were transfected into human kidney-derived cell line, HEK293 cells, using a transfection reagent, jet PEI (Funakoshi). Mouse 11β-HSD1 was transfected to Chinese hamster ovary-derived cell line, CHO-K1 cells. Selection was conducted with 200-400 μg/mL of zeocine (Invitrogen) to provide stably expressing-cell clones. The stably expressing cells were suspended in buffer solution A (20 mmol/L Tris-HCl, pH 7.4, 250 mmol/L sucrose, 1 mmol/L EGTA, 1 mmol/L EDTA, 1 mmol/L MgCl2), sonicated, and then stored at −80° C.
(§4) 2. Assay of Enzyme Inhibitory Activity
(§5) An enzymatic reaction was conducted using a polystyrene 96-well plate. Each well was added with 1 μL of a test agent dissolved in DMSO and then diluted (0.003 to 3 mmol/L), and further added with 10 μL of cell lysate diluted to a concentration of 0.1 mg/mL to 0.4 mg/mL. Next, 90 μL of buffer solution A containing substrate (100 nmol/L cortisone or cortisol) and coenzyme (400 μmol/L NADPH or NAD+) was added and the mixture was incubated at 37° C. for 1 hour. The enzymatic reaction was stopped by treating at 95° C. for 3 minutes. Cortisol that was present in the reaction solution was determined by a competitive ELISA shown below.
(§6) Anti-rabbit IgG antibody (Chemi-con) diluted to 2 μg/mL with carbonate buffer solution (pH 9.6) was added in 100 μL each to a 96-well immuno plate (Nunc) and immobilized by an incubation at 4° C. overnight. 50 μL of enzymatic reaction solution was put onto the plates, and further, anti-cortisol antibody (Cosmo Bio) and HRP-labeled cortisol (Cosmo Bio), diluted with buffer solution B (25 mmol/L Tris-HCl pH 7.4, 137 mmol/L NaCl, 2.68 mmol/L KCl), were added in 50 μL respectively and incubated at 4° C. overnight. After washed three times with buffer solution B containing 0.05% Tween 20, the plates were allowed to develop color by adding 100 μL of color reagent, TMB (Moss). The color reaction was stopped by 25 μL of 1 mol/L sulfuric acid and the absorbance was determined at 450 nm with a microplate reader (Molecular Device, VersaMax).
(§7) The values of human 11β-HSD1, human 11β-HSD2, and mouse 11β-HSD1 activities were subtracted from 100, and the resultant values were regarded as the respective 11β-HSD inhibition rates of example compounds. […] The comparison of human 11β-HSD1 and human 11β-HSD2 inhibiting activities is shown in Table 1, and the comparison of human 11β-HSD1 and mouse 11β-HSD1 inhibiting activities is shown in Table 2.

human 11β-HSD1 = target: T2, human 11β-HSD1 (Homo sapiens, UniProt P28845); assay: Enzyme inhibitory activity, human 11β-HSD1 (lysate of stably expressing HEK293 cells, cortisol by competitive ELISA); assay type: biochemical; conditions: human 11β-HSD1, cell lysate, 37° C. for 1 hour, read-out: h HSD1 in vitro assay (IC50 uM)
T2 construct: The obtained PCR products of about 0.9 kbp, 1.2 kbp, and 0.9 kbp were subcloned into an expression vector pcDNA3.1+/Zeo; expressed in transfected cells
Description: as §1, §2, §3, §4, §5, §6, §7

T2 sequence (P28845 whole entry): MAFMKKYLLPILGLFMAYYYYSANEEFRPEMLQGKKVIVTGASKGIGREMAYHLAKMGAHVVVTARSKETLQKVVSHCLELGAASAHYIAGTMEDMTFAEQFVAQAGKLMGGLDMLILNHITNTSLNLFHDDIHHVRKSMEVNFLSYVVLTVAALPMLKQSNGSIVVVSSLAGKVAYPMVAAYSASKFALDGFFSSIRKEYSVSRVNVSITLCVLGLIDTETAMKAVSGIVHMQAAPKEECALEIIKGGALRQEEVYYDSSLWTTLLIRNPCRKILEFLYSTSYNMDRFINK
T1 sequence (P50172 whole entry): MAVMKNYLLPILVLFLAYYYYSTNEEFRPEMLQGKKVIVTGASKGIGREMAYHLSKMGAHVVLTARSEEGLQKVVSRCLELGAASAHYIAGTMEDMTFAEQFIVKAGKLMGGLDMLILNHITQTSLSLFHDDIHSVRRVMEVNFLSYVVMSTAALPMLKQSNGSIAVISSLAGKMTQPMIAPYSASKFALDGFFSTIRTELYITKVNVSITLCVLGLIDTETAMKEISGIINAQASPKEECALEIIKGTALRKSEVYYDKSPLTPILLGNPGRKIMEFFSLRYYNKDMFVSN

Compound	IC50 (mouse 11β-HSD1)	IC50 (human 11β-HSD1; Table 2)	IC50 (human 11β-HSD1; Table 1)
CC1C(=O)N(C2C3CC4CC(C3)CC2C4)N1Cc1ccc(Cl)cc1 (stereo not shown) [Example 9, 1-(4-chlorobenzyl)-4-methyl-2-(adamantan-2-yl)-1,2-diazetidin-3-one]	0.24 µM	0.68 µM	–
CC1(C)C(=O)N(C2CC3CCC2C3)N1Cc1ccccc1Cl (stereo not shown) [Example 78, 2-(bicyclo[2.2.1]heptan-2-yl)-1-(2-chlorobenzyl)-4,4-dimethyl-1,2-diazetidin-3-one]	0.64 µM	0.15 µM	–
CC1(C)C(=O)N(C2CCCCCCC2)N1Cc1cc(Cl)ccc1Cl [Example 75, 2-cyclooctyl-1-(2,5-dichlorobenzyl)-4,4-dimethyl-1,2-diazetidin-3-one]	0.15 µM	0.038 µM	–
Cc1ccc(C(=O)N2N(C3C4CC5CC(C4)CC3C5)C(=O)C2(C)C)c(C)c1 (stereo not shown) [Example 160, 1-[(2,4-dimethylphenyl)carbonyl]-4,4-dimethyl-2-(adamantan-2-yl)-1,2-diazetidin-3-one]	0.16 µM	–	0.52 µM
CC1(C)C(=O)N(C2C3CC4CC2CC(C(N)=O)(C4)C3)N1Cc1ccccc1Cl (stereo not shown) [Example 95, 4-[2-(2-chlorobenzyl)-3,3-dimethyl-4-oxo-1,2-diazetidin-1-yl]adamantane-1-carboxamide]	0.35 µM	0.13 µM	–
CC1(C)C(=O)N(C2CCCCCC2)N1Cc1cccc(Cl)c1Cl [Example 84, 2-cycloheptyl-1-(2,3-dichlorobenzyl)-4,4-dimethyl-1,2-diazetidin-3-one]	0.61 µM	0.13 µM	–
Cc1c(F)cccc1CN1N(C2C3CC4CC(C3)CC2C4)C(=O)C1(C)C (stereo not shown) [Example 58, 1-(3-fluoro-2-methylbenzyl)-4,4-dimethyl-2-(adamantan-2-yl)-1,2-diazetidin-3-one]	0.061 µM	0.026 µM	–
CC1(C)C(=O)N([C@H]2C3CC4CC2C[C@](O)(C4)C3)N1Cc1ccccc1Cl [Example 65, trans-1-(2-chlorobenzyl)-2-(5-hydroxyadamantan-2-yl)-4,4-dimethyl-1,2-diazetidin-3-one]	0.47 µM	0.5 µM	–
CC1(C)C(=O)N(C2C3CC4CC(C3)CC2C4)N1Cc1ccc(F)cc1F (stereo not shown) [Example 17, 1-(2,4-difluorobenzyl)-4,4-dimethyl-2-(adamantan-2-yl)-1,2-diazetidin-3-one]	0.23 µM	0.71 µM	–
CC1(C)C(=O)N(C2C3CC4CC(C3)CC2C4)N1Cc1ccccc1 (stereo not shown) [Example 12, 1-benzyl-4,4-dimethyl-2-(adamantan-2-yl)-1,2-diazetidin-3-one]	0.023 µM	0.047 µM	–
CC1(C)C(=O)N([C@H]2C3CC4CC2C[C@](C(=O)O)(C4)C3)N1c1cccc2ccccc12 [Example 274, trans-4-[2-(naphthalen-1-yl)-3,3-dimethyl-4-oxo-1,2-diazetidin-1-yl]adamantane-1-carboxylic acid]	0.25 µM	–	0.011 µM
CC1(C)C(=O)N(C2C3CC4CC(C3)CC2C4)N1Cc1cccc(I)c1 (stereo not shown) [Example 35, 1-(3-iodobenzyl)-4,4-dimethyl-2-(adamantan-2-yl)-1,2-diazetidin-3-one]	0.15 µM	0.44 µM	–
Cc1cccc(C(=O)N2N(C3C4CC5CC(C4)CC3C5)C(=O)C2(C)C)c1 (stereo not shown) [Example 109, 4,4-dimethyl-1-[(3-methylphenyl)carbonyl]-2-(adamantan-2-yl)-1,2-diazetidin-3-one]	0.2 µM	0.75 µM	–
COc1ccccc1N1N(C2C3CC4CC(C3)CC2C4)C(=O)C1(C)C (stereo not shown) [Example 205, 1-(2-methoxyphenyl)-4,4-dimethyl-2-(adamantan-2-yl)-1,2-diazetidin-3-one]	0.2 µM	–	0.1 µM
CC1(C)C(=O)N(C2CC3CCC2C3)N1c1cccc(Cl)c1Cl (stereo not shown) [Example 224, 2-(bicyclo[2.2.1]heptan-2-yl)-1-(2,3-dichlorophenyl)-4,4-dimethyl-1,2-diazetidin-3-one]	0.34 µM	–	0.044 µM
CC1(C)C(=O)N(C2C3CC4CC(C3)CC2C4)N1C(=O)c1ccccc1 (stereo not shown) [Example 96, 4,4-dimethyl-1-(phenylcarbonyl)-2-(adamantan-2-yl)-1,2-diazetidin-3-one]	0.22 µM	0.8 µM	–
CC1(C)C(=O)N(C2C3CC4CC(C3)CC2C4)N1Cc1cc(F)ccc1F (stereo not shown) [Example 20, 1-(2,5-difluorobenzyl)-4,4-dimethyl-2-(adamantan-2-yl)-1,2-diazetidin-3-one]	0.2 µM	0.35 µM	–
COc1ccccc1CN1N(C2C3CC4CC(C3)CC2C4)C(=O)C1(C)C (stereo not shown) [Example 51, 1-(2-methoxybenzyl)-4,4-dimethyl-2-(adamantan-2-yl)-1,2-diazetidin-3-one]	0.58 µM	0.082 µM	–
CC1(C)C(=O)N(C2C3CC4CC(C3)CC2C4)N1Cc1cccc(Br)c1 (stereo not shown) [Example 33, 1-(3-bromobenzyl)-4,4-dimethyl-2-(adamantan-2-yl)-1,2-diazetidin-3-one]	0.086 µM	0.38 µM	–
CC1(C)C(=O)N([C@H]2C3CC4CC2C[C@@](Cl)(C4)C3)N1c1cccc2ccccc12 [Example 257, cis-2-(5-chloroadamantan-2-yl)-4,4-dimethyl-1-(naphthalen-1-yl)-1,2-diazetidin-3-one]	0.24 µM	–	0.24 µM
CC1(C)C(=O)N(C2C3CC4CC(C3)CC2C4)N1Cc1ccc2ccccc2c1 (stereo not shown) [Example 64, 4,4-dimethyl-1-(naphthalen-2-ylmethyl)-2-(adamantan-2-yl)-1,2-diazetidin-3-one]	0.041 µM	0.6 µM	–
Cc1cccc(N2N(C3C4CC5CC(C4)CC3C5)C(=O)C2(C)C)c1 (stereo not shown) [Example 193, 4,4-dimethyl-1-(3-methylphenyl)-2-(adamantan-2-yl)-1,2-diazetidin-3-one]	0.36 µM	0.86 µM	–
CC1(C)C(=O)N(C2C3CC4CC(C3)CC2C4)N1Cc1cccc2c1OCO2 (stereo not shown) [Example 61, 1-(1,3-benzodioxol-4-ylmethyl)-4,4-dimethyl-2-(adamantan-2-yl)-1,2-diazetidin-3-one]	0.3 µM	0.23 µM	–
CC1(C)C(=O)N(C2CCCCCC2)N1Cc1cc(F)ccc1Cl [Example 87, 1-(2-chloro-5-fluorobenzyl)-2-cycloheptyl-4,4-dimethyl-1,2-diazetidin-3-one]	0.85 µM	0.1 µM	–
CC1(C)C(=O)N(C2C3CC4CC(C3)CC2C4)N1Cc1ccc([N+](=O)[O-])cc1 (stereo not shown) [Example 31, 4,4-dimethyl-1-(4-nitrobenzyl)-2-(adamantan-2-yl)-1,2-diazetidin-3-one]	0.3 µM	0.96 µM	–
COc1cccc(N2N(C3C4CC5CC(C4)CC3C5)C(=O)C2(C)C)c1 (stereo not shown) [Example 204, 1-(3-methoxyphenyl)-4,4-dimethyl-2-(adamantan-2-yl)-1,2-diazetidin-3-one]	0.42 µM	–	0.16 µM
CC1(C)C(=O)N(C2C3CC4CC(C3)CC2C4)N1Cc1ccccc1-c1ccccc1 (stereo not shown) [Example 49, 1-(biphenyl-2-ylmethyl)-4,4-dimethyl-2-(adamantan-2-yl)-1,2-diazetidin-3-one]	0.31 µM	–	0.8 µM
CC1(C)C(=O)N(C2C3CC4CC(C3)CC2C4)N1Cc1ccc(Br)cc1 (stereo not shown) [Example 53, 1-(4-bromobenzyl)-4,4-dimethyl-2-(adamantan-2-yl)-1,2-diazetidin-3-one]	0.06 µM	0.35 µM	–
CC1(C)C(=O)N(C2C3CC4CC(C3)CC2C4)N1C(=O)c1ccc(N)cc1 (stereo not shown) [Example 139, 1-[(4-aminophenyl)carbonyl]-4,4-dimethyl-2-(adamantan-2-yl)-1,2-diazetidin-3-one]	0.36 µM	–	0.79 µM
